Test results taken from patent US12303621B2, “Use of self-assembled alkylsilane coatings for drug delivery applications” (priority 2017, dated 2025).

Assay: In vitro release of TC or Rh in simulated body fluid (SBF) from alkylsilane-coated Mg discs
Assay type: physicochemical
Details: alkylsilane coated Mg disks incubated in SBF, room temperature, 21 day period, sampled every two days; FIG. 1; one way ANOVA highly significant
Protocol: Self-assembled hybrid […] (AS) films on Mg were prepared using a dip-coating technique. The precursor solution was prepared by mixing 0.25 ml (0.73 mM) of […]) (Alfa Aesar, Ward Hill, MA, USA), 0.43 ml (2.92 mM) of […]) (Alfa Aesar, Ward Hill, MA, USA), 2 ml (0.032 mM) of ethanol and 0.25 ml of 0.010 mM HCl (aq.). […] Both the solutions were kept in the dark to avoid contact with light The Mg discs passivated with NaOH were dip coated in the TC- or Rh-containing solution for 1 minute, and dried in air for 10 minutes at room temperature in the dark. The discs were subsequently dried in an incubator at 37° C. for 24 hours to remove any trace amounts of organic solvents. […] Every two days, 150 μl of SBF was taken from each tube and concentrations of Tc and Rh were determined spectroscopically. The concentrations of TC or Rh were determined by measuring absorbance at 280 nm for TC, and fluorescence at excitation/emission wavelengths of 525/555 nm for Rh using a Synergy H1 microplate reader (BioTek instruments, Winooski, VT, USA). Standard curves were created by measuring absorbance and fluorescence intensities of the series of TC and Rh samples of known concentrations. Absorbance and Fluorescence intensity of each sample was calculated as an average of three separate readings. […] Cumulative release of TC or Rh over 21 day period was determined.

- concentration in SBF media (cumulative release): incremental increase
Substance: rhodamine
